Assay results published in patent US20060069132A1, “Azolecarboxamide herbicides” (priority 2004, published 2006).

Key:
morningglory = test: Test C pre-/postemergence herbicide test; format: in vivo, Ipomoea coccinea; parameters: key to Plant response rating, Morningglory: 0 = no effect, 100 = complete control
Outline: (§1)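 Visual ratings on a 0–100 scale (100 = complete control) made versus untreated controls after 12 to 14 greenhouse days. Test chemicals, formulated in surfactant-containing non-phytotoxic solvent, applied preemergence to planted seeds or postemergence to 1- to 4-leaf plants (2 to 18 cm).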

winter barley = test: Test C postemergence herbicide test; format: in vivo, Hordeum vulgare; conditions: for Barley, Winter plant response rating: 500 g ai/ha
Outline: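 Plants were grown to the 1- to 4-leaf stage (2–18 cm) and then treated postemergence, or grown to the 2-leaf stage for the flooded paddy test. They were held in a greenhouse for 12 to 14 days and then scored by eye against controls, where 0 is no effect and 100 is complete control.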

common ragweed = test: Test C pre-/postemergence herbicide test; format: in vivo, Ambrosia elatior; parameters: key to Plant response rating, Ragweed: 0 = no effect, 100 = complete control
Outline: as §1

chickweed = test: Test C postemergence herbicide test; format: in vivo, Stellaria media
Outline: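 Greenhouse test with a 12–14 day hold after application and visual comparison with controls. Emerged plants were 1- to 4-leaf stage (2–18 cm) when sprayed postemergence, and the paddy barnyardgrass was at 2 leaves under flooded conditions. 100 = complete control.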

dallisgrass = test: Test E pre-/postemergence herbicide test; format: in vivo, Paspalum dilatatum; conditions: Preemergence
Outline: (§2)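 Greenhouse response scored visually 12 to 14 days after treatment versus controls, 0 meaning no effect and 100 complete control. Compounds, formulated with surfactant in a non-phytotoxic solvent blend, were sprayed either preemergence after sowing or postemergence at the 1- to 4-leaf stage (2 to 18 cm).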

barnyardgrass = test: Test E pre-/postemergence herbicide test; format: in vivo, Echinochloa crus-galli; conditions: Preemergence
Outline: as §2

[1] = 62 g ai/ha, preemergence, scale 0 to 100
[2] = 125 g ai/ha, scale 0 (no effect) to 100 (complete control), visual, 12 to 14 days, preemergence
[3] = 250 g ai/ha, scale 0-100, preemergence
[4] = 500 g ai/ha, scale 0 to 100 (0 no effect, 100 complete control), visual, 12 to 14 days, preemergence
[5] = Postemergence, 250 g ai/ha, scale 0 to 100, 0 no effect, 100 complete control
[6] = postemergence, 125 g ai/ha, scale 0 to 100
[7] = postemergence, 62 g ai/ha, scale 0 to 100
[8] = Postemergence, 125 g ai/ha, scale 0 to 100, 0 no effect, 100 complete control
[9] = postemergence, 62 g ai/ha, scale 0 to 100 (0 no effect, 100 complete control)
[10] = Postemergence, 500 g ai/ha, scale 0 to 100
[11] = postemergence, 31 g ai/ha, scale 0 to 100
[12] = 250 g ai/ha, scale 0 (no effect) to 100 (complete control)
[13] = 500 g ai/ha, scale 0 (no effect) to 100 (complete control)

Row | SMILES | Plant response rating, Morningglory (morningglory; [1]) | Plant response rating, Morningglory (morningglory; [3]) | Plant response rating, Morningglory (morningglory; [4]) | Barley, Winter plant response rating (winter barley; Postemergence, scale 0 to 100) | Plant response rating, Barley, Winter (winter barley; [8]) | Plant response rating, Barley, Winter (winter barley; [5]) | Plant response rating, Barley, Winter (winter barley; [9]) | Plant response rating, Ragweed (common ragweed; [1]) | Plant response rating, Ragweed (common ragweed; [3]) | Plant response rating, Ragweed (common ragweed; [4]) | Plant response rating, Barley, Winter (winter barley; [11]) | Plant response rating (0 = no effect, 100 = complete control), Morningglory (morningglory; 125 g ai/ha, preemergence) | Plant response rating (0 = no effect, 100 = complete control), Ragweed (common ragweed; 125 g ai/ha, preemergence) | Plant response rating, Dallisgrass (dallisgrass; 62 g ai/ha, scale 0 to 100) | Plant response rating, Dallisgrass (dallisgrass; 125 g ai/ha, scale 0 to 100) | Plant response rating, Dallisgrass (dallisgrass; [12]) | Plant response rating, Dallisgrass (dallisgrass; [13]) | Plant response rating, Barnyardgrass (barnyardgrass; 62 g ai/ha, scale 0 to 100) | Plant response rating, Barnyardgrass (barnyardgrass; 125 g ai/ha, scale 0 to 100) | Plant response rating, Barnyardgrass (barnyardgrass; [12]) | also measured
1 | CCn1nc(C(C)(C)C)cc1C(=O)Nc1cccc(OC(F)F)c1 [Compound 332] | 0 | 0 | 0 | 40 | 35 | 40 | 35 | 0 | 5 | 70 | – | – | – | – | – | – | – | – | – | – | Plant response rating, Morningglory (morningglory; [2]): 0; Plant response rating, Morningglory (morningglory; [5]): 80; Plant response rating, Morningglory (morningglory; [6]): 10; Plant response rating, Morningglory (morningglory; [7]): 5; Ragweed plant response rating (common ragweed; [10]): 60; Plant response rating, Ragweed (common ragweed; [5]): 40; Plant response rating, Ragweed (common ragweed; [6]): 30; Plant response rating, Ragweed (common ragweed; [7]): 5; Chickweed plant response rating (chickweed; [10]): 100; Plant response rating, Chickweed (chickweed; [5]): 100; Plant response rating, Chickweed (chickweed; [6]): 100; Plant response rating, Chickweed (chickweed; [7]): 60
2 | CCn1nc(C(C)(C)C)cc1C(=O)Nc1cc(C(=S)N(C)C)ccn1 [Compound 334] | 5 | 40 | – | – | 30 | 30 | 20 | 75 | 100 | – | 20 | – | – | – | – | – | – | – | – | – | Plant response rating, Morningglory (morningglory; [2]): 20
3 | CCOC(=O)c1cccc(NC(=O)c2nn(C(C)(C)CC)nc2CC)c1 [Compound 375] | 0 | 5 | – | – | 30 | 40 | 20 | 0 | 10 | – | 10 | 0 | 5 | – | – | – | – | – | – | – | Plant response rating, Morningglory (morningglory; [7]): 10; Plant response rating, Ragweed (common ragweed; [6]): 10; Plant response rating, Ragweed (common ragweed; [7]): 5; Plant response rating, Chickweed (chickweed; [5]): 100; Plant response rating, Chickweed (chickweed; [6]): 100; Plant response rating, Chickweed (chickweed; [11]): 100; Plant response rating, Chickweed (chickweed; [7]): 100
4 | CCc1nn(C(C)(C)C)nc1C(=O)Nc1cccc(C(=O)N(C)CC)c1 [Compound 384] | – | – | – | – | 35 | 35 | 10 | 100 | 100 | – | 0 | – | 100 | 10 | 70 | 75 | 90 | 40 | 80 | 85 | Plant response rating, Barnyardgrass (barnyardgrass; [13]): 100
5 | CCNC(=O)c1cccc(NC(=O)c2nn(C(C)(C)C)nc2C)c1 [Compound 392] | 70 | 100 | 100 | 35 | 35 | 35 | 35 | 60 | 100 | 100 | – | 95 | 100 | 10 | 60 | 75 | 100 | 75 | 75 | 90 | Plant response rating, Barnyardgrass (barnyardgrass; [13]): 100
6 | Cc1nn(C(C)(C)C)nc1C(=O)Nc1cccc(C(=O)N2CC=CC2)c1 [Compound 393] | 60 | – | – | – | 35 | 35 | 35 | 20 | 100 | 100 | 20 | – | 100 | 0 | 10 | 75 | 85 | 0 | 60 | 80 | Plant response rating, Barnyardgrass (barnyardgrass; [13]): 80
7 | C=CCNC(=O)c1cccc(NC(=O)c2nn(C(C)(C)C)nc2CC)c1 [Compound 414] | 10 | – | 95 | 45 | 30 | 45 | 10 | 15 | – | 65 | – | 55 | 45 | – | – | – | – | – | – | – | –
